Tested on: B16F10 cells
Experiment: Cell proliferation / cytotoxicity (Incucyte) with and without light irradiation
Assay type: cell-based, murine
Conditions: B16F10, 10 uM
Procedure: Murine melanoma B16F10 cells were seeded at 3000-4000 cells per well in 96 well black view plate Perkin Elmer plates in DMEM media without phenol, as phenol red may interfere in the absorption of light. After overnight incubation, media was aspirated from the wells and varying concentrations of photosensitizers were added to the cells. Cells were incubated for 4 hours in dark at 37° C., after 4 hours cells were washed twice with 1×PBS and 300 μL of media was added to the wells before placing the plates in Incucyte ZOOM Live cell imaging machine to capture the images after every hour. Percentage confluence was measured over a time period. Similar approach was taken for keratinocyte cell lines NTERT-1 except the starting confluence was 75-85%. This is to mimic the physiological situation in the body where keratinocytes are present in much larger numbers than melanocytes. […]
Mouse melanoma cells B16-F10, human skin keratinocytes N-TERT-1 and primary human melanocytes MeL at cell densities of 4000 cells/well, 6000 cells/well and 3500 cells/well respectively were seeded to achieve similar starting confluence in 96-black Perkin-Elmer well plate in DMEM medium without phenol red (for B16F10 and MeL) and KSFM media (for N/TERT-1 cells) and kept for overnight at 37° C. […] Percentage confluence was measured over a time period. […]

`CN(C)c1ccc2nc3ccc(=[N+](C)C)cc-3sc2c1` [MB, methylene blue] was tested. Which cytotoxicity in dark did it give?
Its cytotoxicity in dark is “no cytotoxicity”.
